The results in this text go back to the supplement of paper PMC10307832.

What all share (test): relative viability (nuclei count vs DMSO), 5 days (fraction); higher = more cells survive
Compound in test [1]: COc1cc2nc(N3CCCN(C)CC3)nc(NC3CCN(Cc4ccccc4)CC3)c2cc1OC + Nc1ncn([C@H]2C[C@H](O)[C@@H](CO)O2)c(=O)n1 [Decitabine] (partner 2 µM)
Put shortly: (§1)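 Dosing by pin tool came one day after lung cancer cell lines were seeded in 1536-well plates, using either one drug or a fixed anchor-drug dose plus five library-drug doses (not always all listed) in √10 steps. After 5 days, nuclei were counted on 4× images. Relative viability is treated-well nuclei count divided by vehicle-well nuclei count, and values are medians of duplicate plates.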

Compound in the test “AZD6482 + Linsitinib”: Cc1cc([C@@H](C)Nc2ccccc2C(=O)O)c2nc(N3CCOCC3)cc(=O)n2c1 [AZD6482] + C[C@]1(O)C[C@@H](c2nc(-c3ccc4ccc(-c5ccccc5)nc4c3)c3c(N)nccn32)C1 [Linsitinib] (partner 1 µM)
A digest of the protocol: as §1

Compound in test [2]: COc1cc2nc(N3CCCN(C)CC3)nc(NC3CCN(Cc4ccccc4)CC3)c2cc1OC + N=C(N)NC(=N)NCCc1ccccc1 [Phenformin] (partner 250 µM)
A digest of the protocol:
as §1

Compound in test [3]: COc1cc2nc(N3CCCN(C)CC3)nc(NC3CCN(Cc4ccccc4)CC3)c2cc1OC + CCNC(=O)c1noc(-c2cc(C(C)C)c(O)cc2O)c1-c1ccc(CN2CCOCC2)cc1 [Luminespib] (partner 0.01 µM)
A digest of the protocol:
as §1

In the case of NCI-H1648, the relative viability in test [1] (first compound 0.6325 µM) stood at 0.472; in test [1] (first compound 6.325 µM), 0.507.
With SK-MES-1, the relative viability in the test with AZD6482 + Linsitinib (first compound 0.08 µM) came out at 0.873; with AZD6482 + Linsitinib (first compound 0.253 µM) it was 1.01; with AZD6482 + Linsitinib (first compound 0.8 µM), 0.608; in the test with AZD6482 + Linsitinib (first compound 2.53 µM) it was 0.394; with AZD6482 + Linsitinib (first compound 8 µM), 0.393; in test [1] (first compound 0.2 µM), 0.371. The relative viability in test [1] (first compound 0.6325 µM) was found to be 0.351; in test [1] (first compound 2 µM), 0.316; in test [1] (first compound 6.325 µM) it was 0.101; in test [2] (first compound 0.2 µM), 0.656; in test [2] (first compound 0.6325 µM), 0.626; in test [2] (first compound 2 µM) it was 0.696. In addition, the relative viability came out at 0.541 in test [2] (first compound 6.325 µM); 0.836 in test [3] (first compound 0.2 µM); 0.702 in test [3] (first compound 0.6325 µM); 0.889 in test [3] (first compound 2 µM); 0.129 in test [3] (first compound 6.325 µM).
Take HCC-366: the relative viability was found to be 0.383 with AZD6482 + Linsitinib (first compound 0.08 µM); 0.438 with AZD6482 + Linsitinib (first compound 0.253 µM); 0.477 with AZD6482 + Linsitinib (first compound 0.8 µM); 0.151 in the test with AZD6482 + Linsitinib (first compound 2.53 µM); 0.141 with AZD6482 + Linsitinib (first compound 8 µM); 0.334 in test [1] (first compound 0.2 µM). The relative viability turned out to be 0.292 in test [1] (first compound 0.6325 µM); 0.358 in test [1] (first compound 2 µM); 0.309 in test [1] (first compound 6.325 µM); 0.577 in test [2] (first compound 0.2 µM); 0.576 in test [2] (first compound 0.6325 µM); 0.613 in test [2] (first compound 2 µM). In addition, the relative viability in test [2] (first compound 6.325 µM) turned out to be 0.639.
As for 201T, the relative viability was 1.03 with AZD6482 + Linsitinib (first compound 0.08 µM); 0.969 in the test with AZD6482 + Linsitinib (first compound 0.253 µM); 1.01 with AZD6482 + Linsitinib (first compound 0.8 µM); 0.808 in the test with AZD6482 + Linsitinib (first compound 2.53 µM); 0.867 with AZD6482 + Linsitinib (first compound 8 µM); 0.889 in test [1] (first compound 0.2 µM). Besides, the relative viability was 0.812 in test [1] (first compound 0.6325 µM); 0.859 in test [1] (first compound 2 µM); 0.799 in test [1] (first compound 6.325 µM); 0.464 in test [2] (first compound 0.2 µM); 0.414 in test [2] (first compound 0.6325 µM); 0.462 in test [2] (first compound 2 µM). In addition, the relative viability in test [2] (first compound 6.325 µM) was determined as 0.442; in test [3] (first compound 0.2 µM), 1.09; in test [3] (first compound 0.6325 µM), 1.12; in test [3] (first compound 2 µM), 1.1; in test [3] (first compound 6.325 µM), 1.08.
Consider HCC-827, for which the relative viability is 0.939 with AZD6482 + Linsitinib (first compound 0.08 µM); 0.944 with AZD6482 + Linsitinib (first compound 0.253 µM); 0.926 in the test with AZD6482 + Linsitinib (first compound 0.8 µM); 0.861 with AZD6482 + Linsitinib (first compound 2.53 µM); 0.775 in the test with AZD6482 + Linsitinib (first compound 8 µM); 0.172 in test [1] (first compound 0.2 µM). Moreover, the relative viability amounted to 0.315 in test [1] (first compound 0.6325 µM); 0.221 in test [1] (first compound 2 µM); 0.326 in test [1] (first compound 6.325 µM); 0.405 in test [2] (first compound 0.2 µM); 0.431 in test [2] (first compound 0.6325 µM); 0.294 in test [2] (first compound 2 µM). Moreover, the relative viability in test [2] (first compound 6.325 µM) was 0.402; in test [3] (first compound 0.2 µM), 0.627; in test [3] (first compound 0.6325 µM) it was 0.555; in test [3] (first compound 2 µM), 0.634; in test [3] (first compound 6.325 µM), 0.612.
For NCI-H647, the relative viability in the test with AZD6482 + Linsitinib (first compound 0.08 µM) came to 0.877; with AZD6482 + Linsitinib (first compound 0.8 µM), 0.739; with AZD6482 + Linsitinib (first compound 2.53 µM) it was 0.7; with AZD6482 + Linsitinib (first compound 8 µM) it was 0.659; in test [1] (first compound 0.2 µM), 0.421; in test [1] (first compound 0.6325 µM) it was 0.356. Also, the relative viability in test [1] (first compound 2 µM) came to 0.394; in test [1] (first compound 6.325 µM) it was 0.28; in test [2] (first compound 0.2 µM), 0.586; in test [2] (first compound 0.6325 µM) it was 0.727; in test [2] (first compound 2 µM), 0.673; in test [2] (first compound 6.325 µM) it was 0.366. In addition, the relative viability in test [3] (first compound 0.2 µM) was determined as 0.352; in test [3] (first compound 0.6325 µM), 0.249; in test [3] (first compound 2 µM), 0.159; in test [3] (first compound 6.325 µM), 0.292.
Take NCI-H2023: the relative viability worked out at 0.373 in the test with AZD6482 + Linsitinib (first compound 0.08 µM); 0.337 in the test with AZD6482 + Linsitinib (first compound 0.253 µM); 0.322 with AZD6482 + Linsitinib (first compound 0.8 µM); 0.199 in the test with AZD6482 + Linsitinib (first compound 2.53 µM); 0.234 with AZD6482 + Linsitinib (first compound 8 µM); 0.226 in test [1] (first compound 0.2 µM). The relative viability in test [1] (first compound 0.6325 µM) was found to be 0.218; in test [1] (first compound 2 µM), 0.25; in test [1] (first compound 6.325 µM), 0.114; in test [2] (first compound 0.2 µM), 0.424; in test [2] (first compound 0.6325 µM) it was 0.414; in test [2] (first compound 2 µM), 0.498. For the same cell line, the relative viability was determined as 0.272 in test [2] (first compound 6.325 µM); 0.818 in test [3] (first compound 0.2 µM); 0.646 in test [3] (first compound 0.6325 µM); 0.637 in test [3] (first compound 2 µM); 0.134 in test [3] (first compound 6.325 µM).
For the cell line NCI-H520, the relative viability with AZD6482 + Linsitinib (first compound 0.08 µM) is 0.773; with AZD6482 + Linsitinib (first compound 0.253 µM), 0.623; in the test with AZD6482 + Linsitinib (first compound 0.8 µM) it was 0.59; with AZD6482 + Linsitinib (first compound 8 µM), 0.412; in test [1] (first compound 0.2 µM), 0.495; in test [1] (first compound 0.6325 µM), 0.454. The relative viability came to 0.534 in test [1] (first compound 2 µM); 0.214 in test [1] (first compound 6.325 µM); 0.558 in test [2] (first compound 0.2 µM); 0.7 in test [2] (first compound 0.6325 µM); 0.499 in test [2] (first compound 2 µM); 0.252 in test [2] (first compound 6.325 µM). The relative viability in test [3] (first compound 0.2 µM) was 0.321; in test [3] (first compound 0.6325 µM), 0.227; in test [3] (first compound 2 µM), 0.27; in test [3] (first compound 6.325 µM), 0.214.
Regarding RERF-LC-KJ, the relative viability worked out at 0.757 in the test with AZD6482 + Linsitinib (first compound 0.08 µM); 0.814 with AZD6482 + Linsitinib (first compound 0.253 µM); 0.822 in the test with AZD6482 + Linsitinib (first compound 0.8 µM); 0.764 with AZD6482 + Linsitinib (first compound 2.53 µM); 0.784 with AZD6482 + Linsitinib (first compound 8 µM); 0.743 in test [1] (first compound 0.2 µM). The relative viability in test [1] (first compound 0.6325 µM) is 0.699; in test [1] (first compound 2 µM), 0.733; in test [1] (first compound 6.325 µM), 0.679; in test [2] (first compound 0.2 µM) it was 0.442; in test [2] (first compound 0.6325 µM), 0.433; in test [2] (first compound 2 µM), 0.397. Further, the relative viability in test [2] (first compound 6.325 µM) was 0.418; in test [3] (first compound 0.2 µM) it was 1.15; in test [3] (first compound 0.6325 µM), 1.13; in test [3] (first compound 2 µM), 1.33; in test [3] (first compound 6.325 µM), 0.903.
Take A-427: the relative viability was found to be 1.02 in the test with AZD6482 + Linsitinib (first compound 0.08 µM); 1.1 with AZD6482 + Linsitinib (first compound 0.253 µM); 1.17 in the test with AZD6482 + Linsitinib (first compound 0.8 µM); 0.951 with AZD6482 + Linsitinib (first compound 2.53 µM); 1.1 in the test with AZD6482 + Linsitinib (first compound 8 µM); 0.602 in test [1] (first compound 0.2 µM). Also, the relative viability in test [1] (first compound 0.6325 µM) was determined as 0.551; in test [1] (first compound 2 µM), 0.589; in test [1] (first compound 6.325 µM), 0.531; in test [2] (first compound 0.2 µM) it was 0.337; in test [2] (first compound 0.6325 µM), 0.422; in test [2] (first compound 2 µM), 0.305. Moreover, the relative viability stood at 0.247 in test [2] (first compound 6.325 µM); 0.934 in test [3] (first compound 0.2 µM); 0.784 in test [3] (first compound 0.6325 µM); 0.8 in test [3] (first compound 2 µM); 0.997 in test [3] (first compound 6.325 µM).
